According to patent US9120749B2, “Quinoline derivatives and MELK inhibitors containing the same” (ONCOTHERAPY SCIENCE, INC., priority 2010, dated 2015):
Counter-ions that a name gives are not always drawn. Like-named read-outs stand apart in the source and are kept apart here.

Legend:
T47D cells = assay: Cell-based assay: anti-proliferative activity, Cell Counting Kit-8, 72 hours (T47D)
How it was run: (§1)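 T47D, A549 and BT-549 cells, with MELK-negative HT-1197 as control (MELK status checked by western blot), seeded at 2,000–3,000 cells/well. Growth measured by CCK-8 72 hours after inhibitor exposure; IC50 values calculated.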

22Rv1 cells = assay: Cell-based assay: anti-proliferative activity, Cell Counting Kit-8, 72 hours (22Rv1)
DU4475 cells = assay: Cell-based assay: anti-proliferative activity, Cell Counting Kit-8, 72 hours (DU4475)
MELK = MELK (Homo sapiens, UniProt Q14680); assay: Kinase assay: MELK activity, phosphorylation of FITC-labeled histone H3 peptide measured by IMAP fluorescence polarization; format: biochemical; settings: read-out: IC50 (μM) (kinase assay)
Chain of MELK (Q14680 whole entry, looked up): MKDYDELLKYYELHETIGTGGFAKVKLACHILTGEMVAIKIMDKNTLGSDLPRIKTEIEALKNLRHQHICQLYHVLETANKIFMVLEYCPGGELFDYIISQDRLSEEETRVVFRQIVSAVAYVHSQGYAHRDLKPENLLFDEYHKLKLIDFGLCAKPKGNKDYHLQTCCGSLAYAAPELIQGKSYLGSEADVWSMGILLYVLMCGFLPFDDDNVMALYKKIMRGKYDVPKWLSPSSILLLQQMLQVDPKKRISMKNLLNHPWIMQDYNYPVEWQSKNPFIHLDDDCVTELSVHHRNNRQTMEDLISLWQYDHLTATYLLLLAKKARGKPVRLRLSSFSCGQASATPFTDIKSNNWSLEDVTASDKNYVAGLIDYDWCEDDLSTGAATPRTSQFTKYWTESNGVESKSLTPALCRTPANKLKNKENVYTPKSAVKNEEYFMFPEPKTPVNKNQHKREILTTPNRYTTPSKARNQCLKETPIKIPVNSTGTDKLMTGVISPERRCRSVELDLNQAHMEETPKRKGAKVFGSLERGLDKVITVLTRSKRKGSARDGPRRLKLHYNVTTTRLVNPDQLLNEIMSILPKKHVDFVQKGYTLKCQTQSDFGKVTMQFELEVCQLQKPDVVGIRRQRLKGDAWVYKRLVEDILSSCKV
How it was run: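 A FITC-labelled histone H3 peptide served as substrate, with compounds serially diluted to 1% DMSO final. Reactions were stopped with three volumes of IMAP progressive binding solution. After 0.5 h at room temperature, fluorescence polarization was read.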

A549 cells = assay: Cell-based assay: anti-proliferative activity, Cell Counting Kit-8, 72 hours (A549); settings: 72 hours
How it was run: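 Cell Counting Kit-8 read-out of A549 growth after 72 hours of inhibitor exposure, cells plated in 96-well format. Values reported as IC50.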

HT-1197 cells = assay: Cell-based assay: anti-proliferative activity, Cell Counting Kit-8, 72 hours (HT-1197, negative control without MELK expression); settings: HT1197 cells (negative control, no MELK expression), 72 hours
How it was run: as §1

[1] = MELK kinase assay, IMAP fluorescence polarization, 50 micro-M ATP

SMILES	IC50 (T47D cells; Homo sapiens, T47D, 72 h)	IC50 (22Rv1 cells; Homo sapiens, 22Rv1, 72 h)	IC50 (DU4475 cells; Homo sapiens, DU-4475, 72 h)	IC50 (MELK; [1])	IC50 (A549 cells; Homo sapiens, A549, 72 h)	IC50 (HT-1197 cells; Homo sapiens, HT1197, 72 h)	IC50 (MELK)	IC50 (HT-1197 cells)	IC50 (T47D cells; 72 hours, hydrochloride)	IC50 (22Rv1 cells; hydrochloride)	IC50 (DU4475 cells; hydrochloride)	IC50 (MELK; MELK kinase assay, IMAP fluorescence polarization, 50 micro-M ATP, hydrochloride)	IC50 (A549 cells; hydrochloride)	IC50 (HT-1197 cells; hydrochloride)	IC50 (MELK; hydrochloride)
CN1CCN(CCc2cccc(Nc3c(C(=O)C4CC4)cnc4ccc(-c5cc(F)c(O)c(Cl)c5)cc34)c2)CC1 [Example 828, (6-(3-chloro-5-fluoro-4-hydroxyphenyl)-4-(3-(2-(4-methylpiperazin-1-yl)ethyl)phenylamino)quinolin-3-yl)(cyclopropyl)methanone]	5.7 µM	0.72 µM	0.16 µM	0.017 µM	0.23 µM	9.5 µM									
CC(=O)c1cnc2ccc(-c3cc(F)c(O)c(Cl)c3)cc2c1Nc1cccc(CCN2CCN(C)CC2)c1 [Example 830, 1-(6-(3-chloro-5-fluoro-4-hydroxyphenyl)-4-(3-(2-(4-methylpiperazin-1-yl)ethyl)phenylamino)quinolin-3-yl)ethanone]	1.5 µM	1.3 µM	0.26 µM	0.019 µM	0.73 µM	15 µM									
O=C(c1cnc2ccc(-c3cc(F)c(O)c(F)c3)cc2c1Nc1ccc(CN2CCCC2)nc1)C1CC1 [Example 795, cyclopropyl(6-(3,5-difluoro-4-hydroxyphenyl)-4-(6-(pyrrolidin-1-ylmethyl)pyridin-3-ylamino)quinolin-3-yl)methanone]	0.51 µM	0.83 µM	0.31 µM		0.34 µM	3.5 µM	0.035 µM								
CC(=O)c1cnc2ccc(-c3cc(Cl)c(O)c(Cl)c3)cc2c1Nc1ccc(N2CCC(N(C)C)C2)nc1 (stereo not drawn) [Example 854, 1-(6-(3,5-dichloro-4-hydroxyphenyl)-4-((6-(3-(dimethylamino)pyrrolidin-1-yl)pyridin-3-yl)amino)quinolin-3-yl)ethanone]	0.25 µM	0.51 µM	0.28 µM	0.0032 µM	0.39 µM			10 µM							
CC(=O)c1cnc2ccc(-c3cc(F)c(O)c(Cl)c3)cc2c1N[C@H]1CCC[C@H](CCN(C)C)C1 [Example 862, 1-(6-(3-chloro-5-fluoro-4-hydroxyphenyl)-4-(((1S,3R)-3-(2-(dimethylamino)ethyl)cyclohexyl)amino)quinolin-3-yl)ethanone hydrochloride]	0.26 µM	0.2 µM	0.2 µM	0.0067 µM	0.29 µM	1.1 µM									
O=C(c1cnc2ccc(-c3cc(F)c(O)c(Cl)c3)cc2c1Nc1cccc(CCN2CCCC2)c1)C1CC1 [Example 799, {6-(3-Chloro-5-fluoro-4-hydroxyphenyl)-4-[3-(2-(pyrrolidin-1-yl)ethyl)phenylamino]quinolin-3-yl}(cyclopropyl)methanone]	0.52 µM	0.25 µM	0.079 µM		0.081 µM	10 µM	0.0047 µM								
CC(=O)c1cnc2ccc(-c3cc(Cl)c(O)c(Cl)c3)cc2c1NC1CCCN(CCN(C)C)C1 (stereo not drawn) [Example 850, 1-(6-(3,5-dichloro-4-hydroxyphenyl)-4-(1-(2-(dimethylamino)ethyl)piperidin-3-ylamino)quinolin-3-yl)ethanone]	1.1 µM	1.2 µM	0.32 µM	0.0019 µM	0.89 µM	4 µM									
CC(=O)c1cnc2ccc(-c3cc(Cl)c(O)c(Cl)c3)cc2c1Nc1ccc(N2CCC(N(C)C)C2)nc1 (stereo not drawn) [Example 855, 1-(6-(3,5-dichloro-4-hydroxyphenyl)-4-((6-(3-(dimethylamino)pyrrolidin-1-yl)pyridin-3-yl)amino)quinolin-3-yl)ethanone hydrochloride]									0.26 µM	0.64 µM	0.23 µM	0.0021 µM	0.38 µM	73 µM	
CC(=O)c1cnc2ccc(-c3cc(F)c(O)c(Cl)c3)cc2c1Nc1cnn(C2CCN(C)CC2)c1 [Example 805, 1-(6-(3-chloro-5-fluoro-4-hydroxyphenyl)-4-(1-(1-methylpiperidin-4-yl)-1H-pyrazol-4-ylamino)quinolin-3-yl)ethanone hydrochloride]	0.17 µM	0.32 µM	0.11 µM		0.34 µM	2.4 µM	0.0028 µM								
CCC(=O)c1cnc2ccc(-c3cc(Cl)c(O)c(OC)c3)cc2c1Nc1ccc(CN(C)C)cc1 [Example 769, 1-(6-(3-chloro-4-hydroxy-5-methoxyphenyl)-4-(4-((dimethylamino)methyl)phenylamino)quinolin-3-yl)propan-1-one]	0.12 µM	0.79 µM	0.14 µM		0.48 µM	2.8 µM	0.0049 µM								
CCC(=O)c1cnc2ccc(-c3cc(Cl)c(O)c(Cl)c3)cc2c1Nc1ccc(CN(C)C)cc1 [Example 771, 1-(6-(3,5-dichloro-4-hydroxyphenyl)-4-((4-((dimethylamino)methyl)phenyl)amino)quinolin-3-yl)propan-1-one]	0.072 µM	0.16 µM	0.045 µM		0.095 µM	0.72 µM	0.0054 µM								
COc1cc(-c2ccc3ncc(C(C)=O)c(N[C@H]4CC[C@H](CN5CCC[C@H]5CO)CC4)c3c2)cc(Cl)c1O [Example 793, 1-(6-(3-chloro-4-hydroxy-5-methoxyphenyl)-4-((1S,4r)-4-(((S)-2-(hydroxymethyl)pyrrolidin-1-yl)methyl)cyclohexylamino)quinolin-3-yl)ethanone]	0.15 µM	0.34 µM	0.33 µM		0.17 µM	7.1 µM	0.0018 µM								
CC(=O)c1cnc2ccc(-c3cc(F)c(O)c(Cl)c3)cc2c1NC1CCC(C(=O)N2CCN(C)CC2)CC1 (stereo not drawn) [Example 849, 1-(6-(3-chloro-5-fluoro-4-hydroxyphenyl)-4-(4-(4-methylpiperazine-1-carbonyl)cyclohexylamino)quinolin-3-yl)ethanone hydrochloride]	0.47 µM	1 µM	1 µM	0.018 µM	1.3 µM	4.5 µM									
CN(C)CCN1CCC(Nc2c(C(=O)C3CC3)cnc3ccc(-c4cc(F)c(O)c(Cl)c4)cc23)CC1 [Example 822, (6-(3-chloro-5-fluoro-4-hydroxyphenyl)-4-(1-(2-(dimethylamino)ethyl)piperidin-4-ylamino)quinolin-3-yl)(cyclopropyl)methanone]	0.29 µM	0.43 µM	0.16 µM	0.0031 µM	0.48 µM	2.5 µM									
CC(=O)c1cnc2ccc(-c3cc(Cl)c(O)c(Cl)c3)cc2c1N[C@H]1CC[C@H](CN2CCCC(N)C2)CC1 (stereo partly drawn) [Example 810]	0.034 µM	0.056 µM	0.044 µM		0.12 µM	2.3 µM	0.0018 µM								
CC(=O)c1cnc2ccc(-c3cc(Cl)c(O)c(Cl)c3)cc2c1N[C@H]1CC[C@H](N(C)C)CC1 [Example 766, 1-(6-(3,5-dichloro-4-hydroxyphenyl)-4-(trans-4-(dimethylamino)cyclohexylamino)quinolin-3-yl)ethanone hydrochloride]									0.074 µM	0.1 µM	0.06 µM		0.14 µM	1 µM	0.0017 µM
